Test results taken from article PMC9366597 (RSC Advances, 2022).
Like-named read-outs stand apart in the source and are kept apart here.

Key:
eeAChE = eeAChE (Electrophorus electricus, UniProt O42275); experiment: AChE inhibition, modified Ellman's method; assay type: biochemical, Electrophorous electricus; details: for SI (IC50 eqBChE/IC50 eeAChE): selectivity index toward eeAChE
hMAO-A = molecular target: T1, hMAO-A (Homo sapiens, UniProt P21397); experiment: MAO-A inhibition, fluorometric method; assay type: biochemical
T1 sequence (P21397 1-527): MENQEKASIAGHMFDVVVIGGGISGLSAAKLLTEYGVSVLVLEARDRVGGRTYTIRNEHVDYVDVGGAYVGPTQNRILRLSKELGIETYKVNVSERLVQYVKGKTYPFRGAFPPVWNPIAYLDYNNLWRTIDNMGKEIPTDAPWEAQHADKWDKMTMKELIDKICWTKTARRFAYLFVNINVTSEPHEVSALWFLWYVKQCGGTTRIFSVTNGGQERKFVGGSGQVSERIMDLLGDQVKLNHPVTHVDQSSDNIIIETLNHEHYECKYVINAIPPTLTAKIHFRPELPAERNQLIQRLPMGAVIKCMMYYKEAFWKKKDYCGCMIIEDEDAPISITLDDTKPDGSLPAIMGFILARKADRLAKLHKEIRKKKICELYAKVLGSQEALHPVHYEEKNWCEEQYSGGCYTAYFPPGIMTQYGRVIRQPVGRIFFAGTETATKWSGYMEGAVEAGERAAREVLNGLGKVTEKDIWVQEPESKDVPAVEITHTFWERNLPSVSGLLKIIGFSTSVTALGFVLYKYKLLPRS

hMAO-B = molecular target: T2, hMAO-B (Homo sapiens, UniProt P27338); experiment: MAO-B inhibition, fluorometric method; assay type: biochemical; details: for SI (IC50 hMAO-A/IC50 hMAO-B): selectivity index toward hMAO-B
T2 sequence (P27338 1-520): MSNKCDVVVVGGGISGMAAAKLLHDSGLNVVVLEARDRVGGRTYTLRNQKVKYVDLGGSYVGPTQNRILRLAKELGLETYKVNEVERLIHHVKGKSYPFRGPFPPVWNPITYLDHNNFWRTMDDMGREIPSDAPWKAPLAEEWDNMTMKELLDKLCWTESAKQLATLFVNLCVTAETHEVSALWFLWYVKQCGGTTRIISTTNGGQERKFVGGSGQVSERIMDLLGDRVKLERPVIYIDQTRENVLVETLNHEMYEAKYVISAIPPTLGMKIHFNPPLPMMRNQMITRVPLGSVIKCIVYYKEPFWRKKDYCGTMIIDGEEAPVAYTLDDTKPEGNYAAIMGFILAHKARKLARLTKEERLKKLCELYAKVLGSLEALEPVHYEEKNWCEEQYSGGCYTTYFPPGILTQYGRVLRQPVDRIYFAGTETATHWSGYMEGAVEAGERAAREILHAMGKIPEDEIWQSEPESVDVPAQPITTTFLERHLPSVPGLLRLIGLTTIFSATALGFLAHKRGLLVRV

eqBChE = eqBChE (Equus caballus, UniProt P81908); experiment: BChE inhibition, modified Ellman's method; assay type: biochemical, Equine
5-LOX = molecular target: T3, 5-LOX (Glycine max, UniProt P08170); experiment: 5-LOX inhibition assay; assay type: biochemical, soybean
T3 sequence (P08170 1-839): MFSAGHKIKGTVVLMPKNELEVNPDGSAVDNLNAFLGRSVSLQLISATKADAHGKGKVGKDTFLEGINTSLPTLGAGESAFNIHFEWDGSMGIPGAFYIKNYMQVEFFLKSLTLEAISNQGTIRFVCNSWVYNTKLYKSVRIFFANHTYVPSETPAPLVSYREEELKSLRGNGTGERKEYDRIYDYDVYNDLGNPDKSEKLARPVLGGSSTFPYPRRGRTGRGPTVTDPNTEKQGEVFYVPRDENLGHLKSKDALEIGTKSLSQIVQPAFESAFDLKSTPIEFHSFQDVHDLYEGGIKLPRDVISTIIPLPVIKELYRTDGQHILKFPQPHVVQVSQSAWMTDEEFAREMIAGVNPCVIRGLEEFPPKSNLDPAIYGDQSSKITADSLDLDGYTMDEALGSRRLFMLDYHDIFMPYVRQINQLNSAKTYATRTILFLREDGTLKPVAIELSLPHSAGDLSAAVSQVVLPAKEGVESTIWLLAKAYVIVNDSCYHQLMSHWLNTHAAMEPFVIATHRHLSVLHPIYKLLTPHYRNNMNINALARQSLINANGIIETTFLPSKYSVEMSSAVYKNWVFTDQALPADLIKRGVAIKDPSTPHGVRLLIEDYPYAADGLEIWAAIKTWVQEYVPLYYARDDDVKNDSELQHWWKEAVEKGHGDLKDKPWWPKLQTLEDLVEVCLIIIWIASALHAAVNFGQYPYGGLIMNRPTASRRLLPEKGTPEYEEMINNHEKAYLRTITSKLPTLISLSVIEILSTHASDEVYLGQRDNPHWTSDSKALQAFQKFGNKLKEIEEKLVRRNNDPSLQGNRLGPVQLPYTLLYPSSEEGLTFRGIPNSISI

[1] = PAMPA-BBB permeation assay; details: for Prediction (PAMPA-BBB) (CNS+, CNS−): class from Pe; for Papp at 20 h: PAMPA, pH 7.4
[2] = In vivo acute toxicity study; details: doses ranging from 50 to 2000 mg kg^−1 body weight
COX-2 = molecular target: T4, COX-2 (Homo sapiens, UniProt P35354); experiment: biochemical; assay type: biochemical
T4 sequence (P35354 18-604): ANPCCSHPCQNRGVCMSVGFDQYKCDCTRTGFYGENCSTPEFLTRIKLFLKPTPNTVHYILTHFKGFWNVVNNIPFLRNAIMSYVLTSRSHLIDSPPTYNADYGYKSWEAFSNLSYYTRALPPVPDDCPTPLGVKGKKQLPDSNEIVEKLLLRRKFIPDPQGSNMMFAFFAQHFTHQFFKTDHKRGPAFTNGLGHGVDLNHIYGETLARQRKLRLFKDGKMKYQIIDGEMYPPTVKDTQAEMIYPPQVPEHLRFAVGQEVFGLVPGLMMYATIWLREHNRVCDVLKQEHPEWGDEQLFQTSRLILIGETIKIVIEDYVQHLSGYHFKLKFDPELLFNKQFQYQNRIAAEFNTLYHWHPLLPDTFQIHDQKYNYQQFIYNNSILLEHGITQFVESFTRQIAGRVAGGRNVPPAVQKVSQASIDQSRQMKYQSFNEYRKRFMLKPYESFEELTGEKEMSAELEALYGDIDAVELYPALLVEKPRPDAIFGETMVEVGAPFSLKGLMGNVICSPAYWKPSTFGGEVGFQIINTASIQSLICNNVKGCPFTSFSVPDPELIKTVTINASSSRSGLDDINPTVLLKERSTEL

[3] = tested on: neuroblastoma SH-SY5Y cells; experiment: MTT assay for neurotoxicity; assay type: cell-based; details: 1, 10, 20, 40 and 80 μM, incubation for 48 hours

Sequence of eqBChE (P81908 whole entry): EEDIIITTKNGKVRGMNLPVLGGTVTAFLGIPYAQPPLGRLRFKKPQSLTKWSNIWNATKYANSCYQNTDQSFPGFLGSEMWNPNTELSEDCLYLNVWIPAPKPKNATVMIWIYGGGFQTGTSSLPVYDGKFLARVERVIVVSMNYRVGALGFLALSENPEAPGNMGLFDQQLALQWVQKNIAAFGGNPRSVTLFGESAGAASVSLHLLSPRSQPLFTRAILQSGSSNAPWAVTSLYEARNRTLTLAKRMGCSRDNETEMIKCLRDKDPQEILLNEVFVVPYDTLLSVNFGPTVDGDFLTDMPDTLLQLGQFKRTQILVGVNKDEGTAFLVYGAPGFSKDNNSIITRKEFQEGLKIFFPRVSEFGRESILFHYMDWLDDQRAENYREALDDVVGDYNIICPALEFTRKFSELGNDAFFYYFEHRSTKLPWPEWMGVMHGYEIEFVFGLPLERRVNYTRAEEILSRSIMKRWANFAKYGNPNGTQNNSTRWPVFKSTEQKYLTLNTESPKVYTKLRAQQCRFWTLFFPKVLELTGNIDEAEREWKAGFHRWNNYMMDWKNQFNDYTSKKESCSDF
Sequence of eeAChE (O42275 24-633): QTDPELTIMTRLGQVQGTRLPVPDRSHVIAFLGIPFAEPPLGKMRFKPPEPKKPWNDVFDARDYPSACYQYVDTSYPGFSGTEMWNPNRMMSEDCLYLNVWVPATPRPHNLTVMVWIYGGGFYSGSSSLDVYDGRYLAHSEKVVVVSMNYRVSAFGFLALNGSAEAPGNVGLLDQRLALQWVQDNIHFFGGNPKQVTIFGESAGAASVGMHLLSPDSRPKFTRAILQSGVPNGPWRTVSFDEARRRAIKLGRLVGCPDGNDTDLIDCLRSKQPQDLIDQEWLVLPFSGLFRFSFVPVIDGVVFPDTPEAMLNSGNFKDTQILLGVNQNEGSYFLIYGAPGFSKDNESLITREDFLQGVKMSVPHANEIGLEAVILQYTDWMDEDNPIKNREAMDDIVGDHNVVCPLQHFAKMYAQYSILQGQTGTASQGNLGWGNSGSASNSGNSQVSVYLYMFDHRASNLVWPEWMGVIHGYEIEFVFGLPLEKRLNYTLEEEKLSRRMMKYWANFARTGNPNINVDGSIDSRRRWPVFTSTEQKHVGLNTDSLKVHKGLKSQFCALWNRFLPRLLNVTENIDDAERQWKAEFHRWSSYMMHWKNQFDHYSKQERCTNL

Compound	IC50 (eeAChE) [µM]	SI (IC50 eqBChE/IC50 eeAChE) (eeAChE)	IC50 (hMAO-A) [µM]	IC50 (hMAO-B) [µM]	SI (IC50 hMAO-A/IC50 hMAO-B) (hMAO-B)	IC50 (eqBChE) [µM]	IC50 (5-LOX) [µM]	Prediction (PAMPA-BBB) (CNS+, CNS−) [1]	Acute toxicity outcome [2]	Papp at 20 h [1] [×10⁻⁶ cm/s]	IC50 (COX-2) [µM]	Neurotoxicity (cell viability, MTT) [3]	IC50 (eeAChE; read-out: IC50 (μM) ± SEM eeAChE) [µM]	IC50 (hMAO-A; read-out: IC50 (μM) ± SEM hMAO-A) [µM]	IC50 (hMAO-B; read-out: IC50 (μM) ± SEM hMAO-B) [µM]	IC50 (eqBChE; read-out: IC50 (μM) ± SEM eqBChE) [µM]	Permeability (PAMPA-BBB) Pe(tested) ([1]; pH 7.4, 20 hours, room temperature)	IC50 (COX-2; read-out: IC50 (μM) ± SEM COX-2, NA = no activity found in tested concentration) [µM]	IC50 (5-LOX; read-out: IC50 (μM) ± SEM 5-LOX) [µM]
O=C(CC1CC(=O)N(CCCSc2nnc(Cc3ccccc3Nc3c(Cl)cccc3Cl)n2-c2ccc(Cl)c(Cl)c2)C1=O)c1ccccc1 (stereo not shown) [Compound 32, 1-(3-((4-(3,4-Dichlorophenyl)-5-(2-((2,6-dichlorophenyl)amino)benzyl)-4H-1,2,4-triazol-3-yl)thio)propyl)-3-(2-oxo-2-phenylethyl)pyrrolidine-2,5-dione]	0.39 ± 0.08	8.7	6.48 ± 0.39	0.106 ± 0.004	61.1	3.39 ± 0.83	48.3 ± 1.42	–	–	–	–	–	–	–	–	–	–	–	–
CCn1cc(C(=O)O)c(=O)c2cc(F)c(N3CCNC(C)C3)c(F)c21 (stereo not shown) [Lomefloxacin, reference compound]	–	–	–	–	–	–	–	CNS− (‘CNS−’ (prediction of low BBB permeation); Pe (10^−6 cm s^−1) < 1.78)	–	–	–	–	–	–	–	–	–	–	–
COc1ccc(C(=O)CC2CC(=O)N(CCCSc3nnc(Cc4ccccc4Nc4c(Cl)cccc4Cl)n3-c3ccc(Cl)c(Cl)c3)C2=O)cc1 (stereo not shown) [Compound 31, 1-(3-((4-(3,4-Dichlorophenyl)-5-(2-((2,6-dichlorophenyl)amino)benzyl)-4H-1,2,4-triazol-3-yl)thio)propyl)-3-(2-(4-methoxyphenyl)-2-oxoethyl)pyrrolidine-2,5-dione]	0.08 ± 0.01	601.2	4.63 ± 0.31	0.024 ± 0.001	193	48.1 ± 1.51	51.3 ± 1.37	–	all animals were found alive	–	–	–	–	–	–	–	–	–	–
NS(=O)(=O)c1ccc(N2N=C(c3ccc(NC(=O)Cc4ccccc4Nc4c(Cl)cccc4Cl)cc3)CC2c2ccc(Cl)cc2)cc1 (stereo not shown) [Compound 39, N-{4-[5-(4-chlorophenyl)-1-(4-sulfamoylphenyl)-4,5-dihydro-1H-pyrazol-3-yl]phenyl}-2-{2-[(2,6-dichlorophenyl)amino]phenyl}acetamide]	0.03 ± 0.01	30.33	0.61 ± 0.08	0.01 ± 0.001	61	0.91 ± 0.16	0.98 ± 0.01	CNS+ (‘CNS+’ (prediction of high BBB permeation); Pe (10^−6 cm s^−1) > 4.39)	all animals were found alive	7.55 ± 0.14	0.6 ± 0.03	no neurotoxicity	–	–	–	–	–	–	–
N-(2-((5-(4-(4aH-Phenothiazin-10(10aH)-yl)butylthio)-4-(3,4-dichlorophenyl)-4H-1,2,4-triazol-3-yl)methyl)phenyl)-2,6-dichlorobenzenamine [Compound 33]	–	117.8	–	–	65.7	–	–	CNS+ (‘CNS+’ (prediction of high BBB permeation); Pe (10^−6 cm s^−1) > 4.39)	all animals were found alive	–	–	no neurotoxicity	0.05	8.55 ± 0.26	0.13 ± 0.01	5.89 ± 1	9.05 ± 0.20 10^−6 cm s^−1	23 ± 0.92	9.11 ± 0.08
NS(=O)(=O)c1ccc(NCSc2nnc(Cc3ccccc3Nc3c(Cl)cccc3Cl)n2-c2ccc(Cl)c(Cl)c2)cc1 [Compound 15, 4-((5-(2-(2,6-dichlorophenylamino)benzyl)-4-(3,4-dichlorophenyl)-4H-1,2,4-triazol-3-ylthio)methylamino)benzenesulfonamide]	0.11 ± 0.01	27.2	1.21 ± 0.07	0.89 ± 0.33	1.3	2.99 ± 0.33	3.42 ± 0.21	CNS+ (‘CNS+’ (prediction of high BBB permeation); Pe (10^−6 cm s^−1) > 4.39)	all animals were found alive	6.36 ± 0.3	0.16 ± 0.04	low neurotoxicity	–	–	–	–	–	–	–
Sc1nnc(Cc2ccccc2Nc2c(Cl)cccc2Cl)n1-c1ccc(Cl)c(Cl)c1 [Compound 12, 5-(2-(2,6-dichlorophenylamino)benzyl)-4-(3,4 dichlorophenyl)-4H-1,2,4-triazole-3-thiol]	2.58 ± 0.41	21.8	11.3 ± 1.01	13.1 ± 1.22	0.8	56.4 ± 1.28	75.5 ± 1.57	–	–	–	0.69 ± 0.13	–	–	–	–	–	–	–	–
Cc1nnc2n1-c1ccc(Cl)cc1C(c1ccccc1)=NC2 [Alprazolam, reference compound]	–	–	–	–	–	–	–	CNS+ (‘CNS+’ (prediction of high BBB permeation); Pe (10^−6 cm s^−1) > 4.39)	–	–	–	–	–	–	–	–	–	–	–
